Experimental data taken from ChEMBL document CHEMBL1909046, “DrugMatrix in vitro pharmacology data”.

Target: Mitogen-activated protein kinase 1 (Homo sapiens, UniProt P28482)
Experiment: DRUGMATRIX: Protein Serine/Threonine Kinase, ERK2 enzyme inhibition (substrate: Myelin Basic Protein)
Design: species or system Escherichia coli
Settings: Not Active = under 50% inhibition at 10 µM

Sequence of Mitogen-activated protein kinase 1 (P28482 whole entry): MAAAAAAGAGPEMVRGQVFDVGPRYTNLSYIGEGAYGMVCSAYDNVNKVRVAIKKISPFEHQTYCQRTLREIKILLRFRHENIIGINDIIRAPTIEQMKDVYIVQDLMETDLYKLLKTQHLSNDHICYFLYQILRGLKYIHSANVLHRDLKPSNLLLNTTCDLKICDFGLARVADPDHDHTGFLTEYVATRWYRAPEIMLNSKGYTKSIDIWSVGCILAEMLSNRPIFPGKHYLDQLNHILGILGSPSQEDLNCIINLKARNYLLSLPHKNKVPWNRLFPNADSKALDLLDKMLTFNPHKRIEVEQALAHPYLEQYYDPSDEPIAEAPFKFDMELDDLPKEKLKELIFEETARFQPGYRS

Row | SMILES | IC50
1 | CC(=O)S[C@@H]1CC2=CC(=O)CC[C@]2(C)[C@H]2CC[C@@]3(C)[C@@H](CC[C@@]34CCC(=O)O4)[C@H]12 [SPIRONOLACTONE] | Not Active
2 | CC(CCc1ccccc1)NCC(O)c1ccc(O)c(C(N)=O)c1 (stereo not given) [LABETALOL] | Not Active
3 | CC(C)[C@H](N)C(=O)OCCOCn1cnc2c(=O)nc(N)[nH]c21 [VALACYCLOVIR] | Not Active

Target: T1, Leukotriene C4 synthase (Cavia porcellus, UniProt A6XA80);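 also: enzyme inhibition assay of leukotriene C4 synthase, using LTA4 as the substrate; in other assays of this panel Not Active means under 50% inhibition at 10 µM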
T1 sequence (A6XA80 whole entry): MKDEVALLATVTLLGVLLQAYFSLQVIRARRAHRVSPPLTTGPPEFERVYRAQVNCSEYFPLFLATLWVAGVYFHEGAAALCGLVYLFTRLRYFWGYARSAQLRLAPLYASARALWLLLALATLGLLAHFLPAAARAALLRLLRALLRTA
Experiment: biochemical
Type: tissue-based, Lung
Settings: not given

Row | SMILES | IC50
4 | CC(=O)S[C@@H]1CC2=CC(=O)CC[C@]2(C)[C@H]2CC[C@@]3(C)[C@@H](CC[C@@]34CCC(=O)O4)[C@H]12 [SPIRONOLACTONE] | Not Active
5 | CC(CCc1ccccc1)NCC(O)c1ccc(O)c(C(N)=O)c1 (stereo not given) [LABETALOL] | Not Active
6 | CC(C)[C@H](N)C(=O)OCCOCn1cnc2c(=O)nc(N)[nH]c21 [VALACYCLOVIR] | Not Active

Target: T2, C-C chemokine receptor type 4 (Homo sapiens, UniProt P51679); also: in other assays of this panel Not Active means under 50% inhibition at 10 µM
T2 sequence (P51679 whole entry): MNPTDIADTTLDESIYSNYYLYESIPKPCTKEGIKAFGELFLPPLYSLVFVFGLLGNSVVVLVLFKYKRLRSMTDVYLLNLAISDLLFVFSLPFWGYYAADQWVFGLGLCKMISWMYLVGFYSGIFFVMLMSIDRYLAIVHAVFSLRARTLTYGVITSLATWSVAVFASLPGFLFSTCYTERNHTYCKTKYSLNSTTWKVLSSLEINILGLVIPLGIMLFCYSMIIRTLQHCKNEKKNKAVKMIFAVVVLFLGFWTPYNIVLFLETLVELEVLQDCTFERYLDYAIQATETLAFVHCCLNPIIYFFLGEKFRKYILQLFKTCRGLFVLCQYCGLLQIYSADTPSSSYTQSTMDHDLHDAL
Experiment: not given
Type: cell membranes, Membrane
Settings: chem-1

Row | SMILES | IC50
7 | CC(=O)S[C@@H]1CC2=CC(=O)CC[C@]2(C)[C@H]2CC[C@@]3(C)[C@@H](CC[C@@]34CCC(=O)O4)[C@H]12 [SPIRONOLACTONE] | Not Active
8 | CC(CCc1ccccc1)NCC(O)c1ccc(O)c(C(N)=O)c1 (stereo not given) [LABETALOL] | Not Active
9 | CC(C)[C@H](N)C(=O)OCCOCn1cnc2c(=O)nc(N)[nH]c21 [VALACYCLOVIR] | Not Active

Target: T3, Cysteinyl leukotriene receptor 1 (Homo sapiens, UniProt Q9Y271); also: in other assays of this panel Not Active means under 50% inhibition at 10 µM
T3 sequence (Q9Y271 whole entry): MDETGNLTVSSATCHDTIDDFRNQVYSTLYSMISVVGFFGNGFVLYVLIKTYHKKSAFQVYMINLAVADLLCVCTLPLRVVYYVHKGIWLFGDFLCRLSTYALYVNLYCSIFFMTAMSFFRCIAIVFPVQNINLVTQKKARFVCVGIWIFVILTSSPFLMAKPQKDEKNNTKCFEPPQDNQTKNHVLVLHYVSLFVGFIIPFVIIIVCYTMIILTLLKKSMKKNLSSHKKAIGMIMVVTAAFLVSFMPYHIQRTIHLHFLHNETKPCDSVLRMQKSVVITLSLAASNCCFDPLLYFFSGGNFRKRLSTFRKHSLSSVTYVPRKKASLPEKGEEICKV
Experiment: not given
Type: cell membranes, CHO-K1, Membrane
Settings: cho-k1

Row | SMILES | IC50
10 | CC(=O)S[C@@H]1CC2=CC(=O)CC[C@]2(C)[C@H]2CC[C@@]3(C)[C@@H](CC[C@@]34CCC(=O)O4)[C@H]12 [SPIRONOLACTONE] | Not Active
11 | CC(CCc1ccccc1)NCC(O)c1ccc(O)c(C(N)=O)c1 (stereo not given) [LABETALOL] | Not Active
12 | CC(C)[C@H](N)C(=O)OCCOCn1cnc2c(=O)nc(N)[nH]c21 [VALACYCLOVIR] | Not Active

Target: T4, Interstitial collagenase (Homo sapiens, UniProt P03956);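 also: MMP-1 enzyme inhibition assay using a peptide substrate; in other assays of this panel Not Active means under 50% inhibition at 10 µM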
T4 sequence (P03956 whole entry): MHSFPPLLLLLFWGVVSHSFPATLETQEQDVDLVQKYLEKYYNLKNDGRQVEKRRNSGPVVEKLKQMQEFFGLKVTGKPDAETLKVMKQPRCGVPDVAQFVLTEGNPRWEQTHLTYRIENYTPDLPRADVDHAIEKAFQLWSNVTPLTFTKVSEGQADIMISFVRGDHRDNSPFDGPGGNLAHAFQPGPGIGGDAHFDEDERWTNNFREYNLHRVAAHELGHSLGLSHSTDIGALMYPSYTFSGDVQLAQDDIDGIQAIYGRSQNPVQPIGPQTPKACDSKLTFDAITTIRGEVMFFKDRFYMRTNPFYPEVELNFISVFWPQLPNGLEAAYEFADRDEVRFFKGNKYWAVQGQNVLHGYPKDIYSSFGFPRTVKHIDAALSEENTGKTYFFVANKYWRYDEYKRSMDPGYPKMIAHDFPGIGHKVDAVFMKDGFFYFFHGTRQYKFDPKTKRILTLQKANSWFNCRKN
Experiment: not given
Type: tissue-based, Rheumatoid synovial fibroblasts
Settings: not given

Row | SMILES | IC50
13 | CC(=O)S[C@@H]1CC2=CC(=O)CC[C@]2(C)[C@H]2CC[C@@]3(C)[C@@H](CC[C@@]34CCC(=O)O4)[C@H]12 [SPIRONOLACTONE] | Not Active
14 | CC(CCc1ccccc1)NCC(O)c1ccc(O)c(C(N)=O)c1 (stereo not given) [LABETALOL] | Not Active
15 | CC(C)[C@H](N)C(=O)OCCOCn1cnc2c(=O)nc(N)[nH]c21 [VALACYCLOVIR] | Not Active

Target: T5, C-X-C chemokine receptor type 2 (Homo sapiens, UniProt P25025); also: in other assays of this panel Not Active means under 50% inhibition at 10 µM
T5 sequence (P25025 whole entry): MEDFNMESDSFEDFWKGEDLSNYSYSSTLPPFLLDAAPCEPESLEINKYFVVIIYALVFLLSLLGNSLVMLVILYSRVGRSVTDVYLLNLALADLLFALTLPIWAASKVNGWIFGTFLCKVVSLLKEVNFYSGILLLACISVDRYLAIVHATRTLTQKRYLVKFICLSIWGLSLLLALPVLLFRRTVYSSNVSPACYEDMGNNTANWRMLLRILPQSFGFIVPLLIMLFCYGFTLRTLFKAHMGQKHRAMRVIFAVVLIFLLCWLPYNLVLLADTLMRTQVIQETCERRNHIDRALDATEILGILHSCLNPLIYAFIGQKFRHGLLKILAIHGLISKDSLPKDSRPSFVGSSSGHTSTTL
Experiment: not given
Type: cell membranes, Membrane
Settings: cho-k1

Row | SMILES | IC50
16 | CC(=O)S[C@@H]1CC2=CC(=O)CC[C@]2(C)[C@H]2CC[C@@]3(C)[C@@H](CC[C@@]34CCC(=O)O4)[C@H]12 [SPIRONOLACTONE] | Not Active
17 | CC(CCc1ccccc1)NCC(O)c1ccc(O)c(C(N)=O)c1 (stereo not given) [LABETALOL] | Not Active
18 | CC(C)[C@H](N)C(=O)OCCOCn1cnc2c(=O)nc(N)[nH]c21 [VALACYCLOVIR] | Not Active

System: not listed separately
Experiment: DRUGMATRIX: Glutamate, NMDA, Agonism radioligand binding (ligand: [3H] CGP-39653)
Type: cell membranes, Rattus norvegicus, Wistar, Cerebral cortex, Membrane
Settings: Not Active = under 50% inhibition at 10 µM

Row | SMILES | IC50 | Ki
19 | CC(=O)S[C@@H]1CC2=CC(=O)CC[C@]2(C)[C@H]2CC[C@@]3(C)[C@@H](CC[C@@]34CCC(=O)O4)[C@H]12 [SPIRONOLACTONE] | Not Active | Not Active
20 | CC(CCc1ccccc1)NCC(O)c1ccc(O)c(C(N)=O)c1 (stereo not given) [LABETALOL] | Not Active | Not Active
21 | CC(C)[C@H](N)C(=O)OCCOCn1cnc2c(=O)nc(N)[nH]c21 [VALACYCLOVIR] | Not Active | Not Active

Target: Vasopressin V1a receptor (Homo sapiens, UniProt P37288); also: in other assays of this panel Not Active means under 50% inhibition at 10 µM
Sequence (P37288 whole entry): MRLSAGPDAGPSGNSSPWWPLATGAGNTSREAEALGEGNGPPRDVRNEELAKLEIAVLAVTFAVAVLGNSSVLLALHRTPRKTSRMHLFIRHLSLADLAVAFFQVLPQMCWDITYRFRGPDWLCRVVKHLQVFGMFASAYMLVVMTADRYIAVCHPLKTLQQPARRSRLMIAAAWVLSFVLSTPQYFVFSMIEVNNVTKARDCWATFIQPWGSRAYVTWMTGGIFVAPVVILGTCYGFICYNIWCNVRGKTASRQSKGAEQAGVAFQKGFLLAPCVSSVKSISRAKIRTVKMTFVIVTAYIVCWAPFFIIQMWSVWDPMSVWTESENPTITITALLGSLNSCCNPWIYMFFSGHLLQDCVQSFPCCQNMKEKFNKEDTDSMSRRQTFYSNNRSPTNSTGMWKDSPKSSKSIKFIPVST
Experiment: not given
Type: cell membranes, Membrane
Settings: hek293

Row | SMILES | IC50
22 | CC(=O)S[C@@H]1CC2=CC(=O)CC[C@]2(C)[C@H]2CC[C@@]3(C)[C@@H](CC[C@@]34CCC(=O)O4)[C@H]12 [SPIRONOLACTONE] | Not Active
23 | CC(CCc1ccccc1)NCC(O)c1ccc(O)c(C(N)=O)c1 (stereo not given) [LABETALOL] | Not Active
24 | CC(C)[C@H](N)C(=O)OCCOCn1cnc2c(=O)nc(N)[nH]c21 [VALACYCLOVIR] | Not Active

System: not listed separately
Experiment: DRUGMATRIX: Glutamate, NMDA, Phencyclidine radioligand binding (ligand: [3H] TCP)
Type: cell membranes, Rattus norvegicus, Wistar, Cerebral cortex, Membrane
Settings: Not Active = under 50% inhibition at 10 µM

Row | SMILES | IC50 | Ki
25 | CC(=O)S[C@@H]1CC2=CC(=O)CC[C@]2(C)[C@H]2CC[C@@]3(C)[C@@H](CC[C@@]34CCC(=O)O4)[C@H]12 [SPIRONOLACTONE] | Not Active | Not Active
26 | CC(CCc1ccccc1)NCC(O)c1ccc(O)c(C(N)=O)c1 (stereo not given) [LABETALOL] | Not Active | Not Active
27 | CC(C)[C@H](N)C(=O)OCCOCn1cnc2c(=O)nc(N)[nH]c21 [VALACYCLOVIR] | Not Active | Not Active

Target: T6, Neuropeptide Y receptor type 1 (Homo sapiens, UniProt P25929); also: in other assays of this panel Not Active means under 50% inhibition at 10 µM
T6 sequence (P25929 whole entry): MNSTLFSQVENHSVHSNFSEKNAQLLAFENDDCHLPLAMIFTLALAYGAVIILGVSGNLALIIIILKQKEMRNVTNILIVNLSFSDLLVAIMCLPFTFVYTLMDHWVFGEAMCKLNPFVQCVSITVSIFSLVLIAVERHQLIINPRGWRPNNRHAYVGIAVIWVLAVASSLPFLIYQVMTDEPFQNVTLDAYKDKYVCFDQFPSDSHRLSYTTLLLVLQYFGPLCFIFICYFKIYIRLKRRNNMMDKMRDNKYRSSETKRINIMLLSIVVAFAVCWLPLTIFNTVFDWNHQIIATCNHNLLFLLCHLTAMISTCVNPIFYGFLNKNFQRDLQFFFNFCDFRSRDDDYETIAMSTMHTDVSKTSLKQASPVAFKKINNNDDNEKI
Experiment: not given
Type: cell membranes, Membrane
Settings: sk-n-mc

Row | SMILES | IC50
28 | CC(=O)S[C@@H]1CC2=CC(=O)CC[C@]2(C)[C@H]2CC[C@@]3(C)[C@@H](CC[C@@]34CCC(=O)O4)[C@H]12 [SPIRONOLACTONE] | Not Active
29 | CC(CCc1ccccc1)NCC(O)c1ccc(O)c(C(N)=O)c1 (stereo not given) [LABETALOL] | Not Active
30 | CC(C)[C@H](N)C(=O)OCCOCn1cnc2c(=O)nc(N)[nH]c21 [VALACYCLOVIR] | Not Active

Target: T7, Adenosine receptor A3 (Homo sapiens, UniProt P0DMS8)
T7 sequence (P0DMS8 whole entry): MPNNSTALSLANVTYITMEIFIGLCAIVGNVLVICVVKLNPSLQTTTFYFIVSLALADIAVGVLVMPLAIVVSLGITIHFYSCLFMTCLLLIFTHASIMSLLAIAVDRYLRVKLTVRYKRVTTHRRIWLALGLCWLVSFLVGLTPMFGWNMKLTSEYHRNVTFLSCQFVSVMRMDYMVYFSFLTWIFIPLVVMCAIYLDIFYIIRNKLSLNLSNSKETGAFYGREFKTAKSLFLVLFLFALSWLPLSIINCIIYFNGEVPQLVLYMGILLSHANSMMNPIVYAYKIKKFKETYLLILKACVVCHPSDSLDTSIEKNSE
Experiment: not given
Type: cell membranes, CHO-K1, Membrane
Settings: cho-k1

Row | SMILES | IC50
31 | CC(=O)S[C@@H]1CC2=CC(=O)CC[C@]2(C)[C@H]2CC[C@@]3(C)[C@@H](CC[C@@]34CCC(=O)O4)[C@H]12 [SPIRONOLACTONE] | Not Active
32 | CC(CCc1ccccc1)NCC(O)c1ccc(O)c(C(N)=O)c1 (stereo not given) [LABETALOL] | Not Active
33 | CC(C)[C@H](N)C(=O)OCCOCn1cnc2c(=O)nc(N)[nH]c21 [VALACYCLOVIR] | Not Active

System: not listed separately
Experiment: DRUGMATRIX: Phorbol Ester radioligand binding (ligand: [3H] PDBu)
Type: cell membranes, Mus musculus, ICR, Brain, Membrane
Settings: Not Active = under 50% inhibition at 10 µM

Row | SMILES | IC50 | Ki
34 | CC(=O)S[C@@H]1CC2=CC(=O)CC[C@]2(C)[C@H]2CC[C@@]3(C)[C@@H](CC[C@@]34CCC(=O)O4)[C@H]12 [SPIRONOLACTONE] | Not Active | Not Active
35 | CC(CCc1ccccc1)NCC(O)c1ccc(O)c(C(N)=O)c1 (stereo not given) [LABETALOL] | Not Active | Not Active
36 | CC(C)[C@H](N)C(=O)OCCOCn1cnc2c(=O)nc(N)[nH]c21 [VALACYCLOVIR] | Not Active | Not Active
